One experiment concerns the target T1, P. aeruginosa LpxC (Pseudomonas aeruginosa, UniProt P47205).
T1 sequence (P47205 1-303): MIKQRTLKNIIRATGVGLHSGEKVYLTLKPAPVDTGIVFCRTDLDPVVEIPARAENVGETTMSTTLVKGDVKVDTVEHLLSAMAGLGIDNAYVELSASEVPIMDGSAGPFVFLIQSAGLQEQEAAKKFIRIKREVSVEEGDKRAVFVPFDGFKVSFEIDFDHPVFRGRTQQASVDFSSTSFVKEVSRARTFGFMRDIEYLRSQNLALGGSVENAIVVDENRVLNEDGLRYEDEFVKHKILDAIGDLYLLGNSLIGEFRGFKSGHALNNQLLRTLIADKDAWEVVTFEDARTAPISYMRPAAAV
Kind of experiment: P. aeruginosa LpxC Inhibition Assay. In kind it is biochemical. As for the experimental part:
The assay followed the general method of Hyland et al (Journal of Bacteriology 1997 179, 2029-2037: Cloning, expression and purification of UDP-3-O-acyl-GlcNAc deacetylase from Pseudomonas aeruginosa: a metalloamidase of the lipid A biosynthesis pathway) and the radiolabeling procedure is according to Kline et al. supra. Briefly, samples were incubated with 2 nM P. aeruginosa LpxC and 150 nM [3H-Ac]-UDP-3-OR-3-hydroxydecanoyl)-GlcNAc in a total volume of 50 uL for 90 min at room temperature. Reactions were carried out in 96-well polypropylene plates in 50 mM sodium phosphate buffer, pH 7.5, containing 1 mg/mL BSA. Reactions were stopped by the addition of 180 uL of a 3% suspension of activated charcoal powder in 100 mM sodium acetate, pH 7.5. Supernatants were clarified by centrifugation. A portion of the clarified supernatant, containing the enzymatically released [3H]-acetate, was transferred to opaque white 96-well plates containing scintillation fluid. The radioactivity was measured in a Perkin-Elmer/Wallac Trilux Microbeta counter.

In experiment [1] the test system is Pseudomonas aeruginosa cystic fibrosis isolate 1145. Description: microbe, parasite or virus in culture. In kind it is cell-based. As for the experimental part: (§1) Bacterial isolates were cultivated from −70° C. frozen stocks by two consecutive overnight passages at 35° C. in ambient air on 5% blood agar (Remel, Lenexa, Kans.). Clinical isolates tested were from a collection composed of isolates collected during clinical trials and recent clinical isolates obtained from various geographically diverse hospitals in the US. Quality control and primary panel strains were from the American Type Culture Collection (ATCC; Rockville, Md.), with the exception of P. aeruginosa PAO200, a strain with a deletion of the mexABoprM genes that was received from Dr. H. Schweizer.
(§2) Minimum Inhibitory Concentrations (MICs) were determined by the broth microdilution method in accordance with the National Committee for Clinical Laboratory Standards (NCCLS) guidelines. In brief, organism suspensions were are adjusted to a 0.5 McFarland standard to yield a final inoculum between 3×10^5 and 7×10^5 colony-forming units (CFU)/mL. Drug dilutions and inocula were made in sterile, cation adjusted Mueller-Hinton Broth (Remel). An inoculum volume of 100 μl was added to wells containing 100 μl of broth with 2-fold serial dilutions of drug. All inoculated microdilution trays were incubated in ambient air at 35° C. for 18-24 hours. Following incubation, the lowest concentration of the drug that prevented visible growth was recorded as the MIC.

The subject of experiment [2] is Pseudomonas aeruginosa cystic fibrosis isolate 3206. Kind of experiment: microbe, parasite or virus in culture. In kind it is cell-based. As for the experimental part:
as §1, §2

In another experiment the test system is Burkholderia cepacia. Description: MIC vs non-fermenting organisms: Burkholderia cepacia. In kind it is cell-based. The note with it: Burkholderia cepacia, B. cepacia; MIC key class; read-out: MIC. As for the experimental part:
as §1, §2

Experiment [3] has as its system Pseudomonas aeruginosa cystic fibrosis isolate 3232. Description: MIC vs cystic fibrosis isolate of P. aeruginosa 3232 (Ceftaz. R). In kind it is cell-based. The note with it: strain 3232, Ceftaz. R, LpxC inhibitors, MIC key class.
Where [4] appears, read: strain 1145, MDR, LpxC inhibitors, MIC key class, read-out: MIC.
The mark [5] stands for this setting: strain 3206, MDR, LpxC inhibitors, MIC key class, read-out: MIC.
[6] abbreviates: 2 nM P. aeruginosa LpxC, 90 min, room temperature, read-out: IC50 (nM), Enzyme inhibitory activity.

The source of these data is patent publication US7358359B2, “Antibacterial agents” (University of Washington, priority 2003, dated 2008).

Structures are written as SMILES. ≈ marks a conversion by molar mass, not a printed value. Where two headings read alike, the source gives them in different places. Some results are limits rather than exact numbers.

A word on the IC50: it is the concentration that inhibits the measured activity by half. In turn, `C[C@@H](N)[C@H](NC(=O)c1ccc(C#Cc2ccccc2)cc1)C(=O)NO` [Example 13] came in with an IC50 on P. aeruginosa LpxC of under 100 nM. Also, the MIC (in experiment [1] (setting [4]); in experiment [2] (setting [5]); with Burkholderia cepacia; in experiment [3]) was under 6.25 µg/mL in each case.

Regarding `NC[C@H](NC(=O)c1ccc(C#Cc2ccc(NC(=O)CNC3CC3)cc2)cc1)C(=O)NO` [Example 516, N-[(1S)-1-(aminomethyl)-2-(hydroxyamino)-2-oxoethyl]-4-[(4-{[(cyclopropylamino)acetyl]amino}phenyl)ethynyl]benzamide], on P. aeruginosa LpxC (setting [6]), the IC50 is under 100 nM. Also, the MIC in experiment [1] (setting [4]) was under 6.25 µg/mL; in experiment [2] (setting [5]), under 6.25 µg/mL; in the experiment on Burkholderia cepacia, over 50 µg/mL; in experiment [3], under 6.25 µg/mL.

With `CCc1ccc(-c2ccc(C(=O)N[C@@H](CN)C(=O)NO)cc2)cc1` [Example 280, N-[(1S)-1-(aminomethyl)-2-(hydroxyamino)-2-oxoethyl]-4′-ethyl-1,1-biphenyl-4-carboxamide], the IC50 on P. aeruginosa LpxC (setting [6]) was under 100 nM. Besides, the MIC in experiment [1] (setting [4]) was under 6.25 µg/mL; in experiment [2] (setting [5]), under 6.25 µg/mL; in the experiment with Burkholderia cepacia, 6.25 to 50 µg/mL (≈ 19.1 to 153 µM); in experiment [3], under 6.25 µg/mL.

`C[C@@H](O)[C@H](NC(=O)c1ccc(C#CC#Cc2ccccc2)cc1)C(=O)NO` [Example 19, N-(1-(N-hydroxycarbamoyl)(1S,2R)-2-hydroxypropyl)[4-(4-phenylbuta-1,3-diynyl)phenyl]carboxamide] displayed an IC50 against P. aeruginosa LpxC of under 100 nM. Moreover, the MIC was under 6.25 µg/mL in experiment [1] (setting [4]), under 6.25 µg/mL in experiment [2] (setting [5]), 6.25 to 50 µg/mL (≈ 17.2 to 138 µM) in the experiment on Burkholderia cepacia and under 6.25 µg/mL in experiment [3].

As to `NC[C@H](NC(=O)c1ccc(C#CC#Cc2ccccc2)cc1)C(=O)NO` [Example 481, N-[(1S)-1-(aminomethyl)-2-(hydroxyamino)-2-oxoethyl]-4-(4-phenylbuta-1,3-diynyl)benzamide], the IC50 on P. aeruginosa LpxC (setting [6]) is under 100 nM. Besides, the MIC in experiment [1] (setting [4]) was under 6.25 µg/mL; in experiment [2] (setting [5]), under 6.25 µg/mL; in the experiment with Burkholderia cepacia it was 6.25 to 50 µg/mL (≈ 18 to 144 µM); in experiment [3], under 6.25 µg/mL.

Regarding `C[C@@H](O)[C@H](NC(=O)c1ccc(C#CC#Cc2ccc(NC(=O)CNc3ccccc3)cc2)cc1)C(=O)NO` [Example 777, N-{(1S,2R)-2-hydroxy-1-[(hydroxyamino)carbonyl]propyl}-4-[4-(4-{[(phenylamino)acetyl]amino}phenyl)buta-1,3-diynyl]benzamide], at P. aeruginosa LpxC (setting [6]), the IC50 is under 100 nM. The MIC (in experiment [1] (setting [4]); in experiment [2] (setting [5]); in the experiment on Burkholderia cepacia; in experiment [3]) was under 6.25 µg/mL each time.

As to `CCc1ccc(-c2ccc(C(=O)N[C@H](C(=O)NO)[C@@H](C)N)cc2)cc1` [Example 779, N-{(1S,2R)-2-amino-1-[(hydroxyamino)carbonyl]propyl)-4′-ethyl-1,1′-biphenyl-4-carboxamide], on P. aeruginosa LpxC, the IC50 is under 100 nM. In addition, the MIC (in experiment [1] (setting [4]); in experiment [2] (setting [5]); with Burkholderia cepacia; in experiment [3]) was under 6.25 µg/mL each time.

As for `C[C@@H](O)[C@H](NC(=O)c1ccc(C#CC#Cc2ccc(NC(=O)CNc3ccccn3)cc2)cc1)C(=O)NO` [Example 801, N-{(1S,2R)-2-hydroxy-1-[(hydroxyamino)carbonyl]propyl}-4-[4-(4-{[(pyridin-2-ylamino)acetyl]amino}phenyl)buta-1,3-diynyl]benzamide], the IC50 at P. aeruginosa LpxC (setting [6]) was under 100 nM. The MIC is under 6.25 µg/mL in experiment [1] (setting [4]), under 6.25 µg/mL in experiment [2] (setting [5]), 6.25 to 50 µg/mL (≈ 12.2 to 97.7 µM) in the experiment with Burkholderia cepacia and under 6.25 µg/mL in experiment [3].

As for `C[C@@H](O)[C@H](NC(=O)c1ccc(-c2ccc(Br)cc2)cc1)C(=O)NO` [Example 315, 4′-bromo-N-{(1S,2R)-2-hydroxy-1-[(hydroxyamino)carbonyl]propyl}-1,1′-biphenyl-4-carboxamide], the IC50 at P. aeruginosa LpxC (setting [6]) was under 100 nM. Further, the MIC (in experiment [1] (setting [4]); in experiment [2] (setting [5]); in the experiment with Burkholderia cepacia; in experiment [3]) was under 6.25 µg/mL each time.

With `C[C@@H](O)[C@H](NC(=O)c1ccc(C#Cc2ccccc2)cc1)C(=O)NO` [Example 12, N-(1-(N-hydroxycarbamoyl)(1S,2R)-2-hydroxypropyl)[4-(2-phenylethynyl)phenyl]carboxamide], the IC50 at P. aeruginosa LpxC is under 100 nM. Moreover, the MIC in experiment [1] is under 6.25 µg/mL; in experiment [2], under 6.25 µg/mL; in the experiment with Burkholderia cepacia, 6.25 to 50 µg/mL (≈ 18.5 to 148 µM); in experiment [3], under 6.25 µg/mL.
